Test results published in patent US8058242B2, “Chimeric proteins with natriuretic activity” (The University of Queensland, priority 2004, dated 2011).
Like-named read-outs stand apart in the source and are kept apart here. Positions of bridges follow the written chain, without caps; N, C: chain ends. Non-standard residues stand in square brackets, D forms with d. Residues, ends and D or L forms follow the SMILES beside them. Sec = N[C@@H](C[SeH])C(=O)O

Assays:
conscious rabbits = test: Blood pressure and heart rate in conscious rabbits, intravenous infusion dose-response (Example 8)
[1] = target: T1, Natriuretic Peptide Receptor-A (NPR-A) signaling in MDCK cells (Canis lupus familiaris, UniProt A0A8I3MHU3); format: cell-based, canine; conditions: for EC50: read-out: EC50 (M) ± Standard Error
T1 sequence (A0A8I3MHU3 32-1060): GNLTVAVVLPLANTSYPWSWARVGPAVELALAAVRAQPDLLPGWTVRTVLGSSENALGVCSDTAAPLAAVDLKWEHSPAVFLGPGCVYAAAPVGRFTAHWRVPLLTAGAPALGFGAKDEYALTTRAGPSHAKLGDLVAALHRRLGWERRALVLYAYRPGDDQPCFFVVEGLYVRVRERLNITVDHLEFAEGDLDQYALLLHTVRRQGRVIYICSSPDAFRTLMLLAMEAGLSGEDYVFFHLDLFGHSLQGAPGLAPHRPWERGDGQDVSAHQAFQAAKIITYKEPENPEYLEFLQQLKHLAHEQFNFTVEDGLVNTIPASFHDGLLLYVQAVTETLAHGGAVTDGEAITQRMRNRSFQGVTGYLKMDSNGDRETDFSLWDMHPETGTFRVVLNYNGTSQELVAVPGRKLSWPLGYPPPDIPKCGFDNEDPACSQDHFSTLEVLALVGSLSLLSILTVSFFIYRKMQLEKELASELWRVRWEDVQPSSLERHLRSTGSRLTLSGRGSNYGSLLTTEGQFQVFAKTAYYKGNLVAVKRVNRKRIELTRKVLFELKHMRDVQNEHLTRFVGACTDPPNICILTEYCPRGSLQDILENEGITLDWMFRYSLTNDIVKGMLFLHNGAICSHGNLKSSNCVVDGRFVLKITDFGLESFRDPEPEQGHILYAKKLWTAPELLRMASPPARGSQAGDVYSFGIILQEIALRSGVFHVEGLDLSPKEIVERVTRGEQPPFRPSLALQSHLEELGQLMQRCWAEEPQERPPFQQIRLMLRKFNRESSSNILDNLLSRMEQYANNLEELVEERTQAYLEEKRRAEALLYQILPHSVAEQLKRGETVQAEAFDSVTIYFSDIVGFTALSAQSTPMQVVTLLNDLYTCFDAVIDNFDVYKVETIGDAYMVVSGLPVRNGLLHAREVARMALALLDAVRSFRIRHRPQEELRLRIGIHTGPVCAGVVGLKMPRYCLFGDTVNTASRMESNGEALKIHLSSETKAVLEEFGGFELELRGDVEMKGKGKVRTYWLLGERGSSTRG

[2] = after 1 hour recovery period, Table 10A
[3] = stimulation of cGMP accumulation in MDCK cells

Compound | −Log10 EC50 (pEC50) ± Standard Error [1, 3] | EC50 [1, 3] [M] | also measured
SDSKIGNGCFGFPLDHIGSVSGLGCNRIMQNPPKKFSGE (A portion of a natriuretic peptide) [TNPc R16H] | – | – | Recovery (MAP) (conscious rabbits; [2]): 67.6 mm Hg; Recovery Delta SED (MAP) (conscious rabbits; [2]): 2.0 ± 3.9 mm Hg; reduction of MAP compared to vehicle, in words (conscious rabbits; highest dose): did significantly reduce MAP; MAP at final dose (conscious rabbits; highest dose, Table 10A): 65.6 mm Hg; Treatment Effect, change of mean blood pressure during the infusion (conscious rabbits; highest dose, Table 10A, groups 1, 2A and 3): −7.3 mm Hg
CC[C@H](C)[C@H](NC(=O)[C@H](CCCCN)NC(=O)[C@H](CO)NC(=O)[C@H](CC(=O)O)NC(=O)[C@@H](N)CO)C(=O)NCC(=O)N[C@@H](CC(N)=O)C(=O)NCC(=O)N[C@H]1CSSC[C@@H](C(=O)N[C@@H](CC(N)=O)C(=O)N[C@@H](CCCNC(=N)N)C(=O)N2CCC[C@H]2C(=O)N[C@@H](CCSC)C(=O)N[C@@H](CCC(N)=O)C(=O)N[C@@H](CC(N)=O)C(=O)N2CCC[C@H]2C(=O)N2CCC[C@H]2C(=O)N[C@@H](CCCCN)C(=O)N[C@@H](CCCCN)C(=O)N[C@@H](Cc2ccccc2)C(=O)N[C@@H](CO)C(=O)NCC(=O)N[C@@H](CCC(=O)O)C(=O)O)NC(=O)CNC(=O)[C@H](CC(C)C)NC(=O)CNC(=O)[C@H](CO)NC(=O)[C@H](C(C)C)NC(=O)[C@H](CO)NC(=O)CNC(=O)[C@H]([C@@H](C)CC)NC(=O)[C@H](CCCNC(=N)N)NC(=O)[C@H](CC(=O)O)NC(=O)[C@H](CC(C)C)NC(=O)[C@@H]2CCCN2C(=O)[C@H](Cc2ccccc2)NC(=O)CNC(=O)[C@H](Cc2ccccc2)NC1=O [Peptide I28P-TNPc] (H-SDSKIGNGCFGFPLDRIGSVSGLGCNRPMQNPPKKFSGE-OH; disulfide 9-25; N-terminus assumed) | 5.995 ± 0.2450 | 1.19e-06 | –
CC[C@H](C)[C@@H]1NC(=O)[C@H](CCCNC(=N)N)NC(=O)[C@H](CC(=O)O)NC(=O)[C@H](CC(C)C)NC(=O)[C@@H]2CCCN2C(=O)[C@H](Cc2ccccc2)NC(=O)CNC(=O)[C@H](Cc2ccccc2)NC(=O)[C@@H](NC(=O)CNC(=O)[C@H](C)NC(=O)[C@H](CO)NC(=O)[C@@H](NC(=O)[C@H](CCCCN)NC(=O)[C@H](CO)NC(=O)[C@H](CC(=O)O)NC(=O)[C@@H](N)CO)[C@@H](C)CC)CSSC[C@@H](C(=O)N[C@@H](CC(N)=O)C(=O)N[C@@H](CCCNC(=N)N)C(=O)N[C@H](C(=O)N[C@@H](CCSC)C(=O)N[C@@H](CCC(N)=O)C(=O)N[C@@H](CC(N)=O)C(=O)N2CCC[C@H]2C(=O)N2CCC[C@H]2C(=O)N[C@@H](CCCCN)C(=O)N[C@@H](CCCCN)C(=O)N[C@@H](Cc2ccccc2)C(=O)N[C@@H](CO)C(=O)NCC(=O)N[C@@H](CCC(=O)O)C(=O)O)[C@@H](C)CC)NC(=O)CNC(=O)[C@H](CC(C)C)NC(=O)CNC(=O)[C@H](CO)NC(=O)[C@H](C(C)C)NC(=O)[C@H](CO)NC(=O)CNC1=O [Peptide A7S6-TNPc] (H-SDSKISAGCFGFPLDRIGSVSGLGCNRIMQNPPKKFSGE-OH; disulfide 9-25; N-terminus assumed) | 6.897 ± 0.2652 | 1.69e-07 | –
CC[C@H](C)[C@H](NC(=O)[C@H](CCCCN)NC(=O)[C@H](CO)NC(=O)[C@H](CC(=O)O)NC(=O)[C@@H](N)CO)C(=O)NCC(=O)N[C@@H](CC(N)=O)C(=O)NCC(=O)N[C@H]1C[Se][Se]C[C@@H](C(=O)N[C@@H](CC(N)=O)C(=O)N[C@@H](CCCNC(=N)N)C(=O)N[C@H](C(=O)N[C@@H](CCSC)C(=O)N[C@@H](CCC(N)=O)C(=O)N[C@@H](CC(N)=O)C(=O)N2CCC[C@H]2C(=O)N2CCC[C@H]2C(=O)N[C@@H](CCCCN)C(=O)N[C@@H](CCCCN)C(=O)N[C@@H](Cc2ccccc2)C(=O)N[C@@H](CO)C(=O)NCC(=O)N[C@@H](CCC(=O)O)C(=O)O)[C@@H](C)CC)NC(=O)CNC(=O)[C@H](CC(C)C)NC(=O)CNC(=O)[C@H](CO)NC(=O)[C@H](C(C)C)NC(=O)[C@H](CO)NC(=O)CNC(=O)[C@H]([C@@H](C)CC)NC(=O)[C@H](CCCNC(=N)N)NC(=O)[C@H](CC(=O)O)NC(=O)[C@H](CC(C)C)NC(=O)[C@@H]2CCCN2C(=O)[C@H](Cc2ccccc2)NC(=O)CNC(=O)[C@H](Cc2ccccc2)NC1=O [Sec2-TNPc] (H-SDSKIGNG[Sec]FGFPLDRIGSVSGLG[Sec]NRIMQNPPKKFSGE-OH; diselenide 9-25) | – | – | −Log10 EC50 (pEC50) ± Standard Error [1]: 7.463 ± 0.4096; EC50 [1]: 6.39e-08 M
CC[C@H](C)[C@H](NC(=O)[C@H](CCCCN)NC(=O)[C@H](CO)NC(=O)[C@H](CC(=O)O)NC(=O)[C@@H](N)CO)C(=O)NCC(=O)N[C@@H](CC(=O)O)C(=O)NCC(=O)N[C@H]1CSSC[C@@H](C(=O)N[C@@H](CC(N)=O)C(=O)N[C@@H](CCCNC(=N)N)C(=O)N[C@H](C(=O)N[C@@H](CCSC)C(=O)N[C@@H](CCC(N)=O)C(=O)N[C@@H](CC(N)=O)C(=O)N2CCC[C@H]2C(=O)N2CCC[C@H]2C(=O)N[C@@H](CCCCN)C(=O)N[C@@H](CCCCN)C(=O)N[C@@H](Cc2ccccc2)C(=O)N[C@@H](CO)C(=O)NCC(=O)N[C@@H](CCC(=O)O)C(=O)O)[C@@H](C)CC)NC(=O)CNC(=O)[C@H](CC(C)C)NC(=O)CNC(=O)[C@H](CO)NC(=O)[C@H](C(C)C)NC(=O)[C@H](CO)NC(=O)CNC(=O)[C@H]([C@@H](C)CC)NC(=O)[C@H](CCCNC(=N)N)NC(=O)[C@H](CC(=O)O)NC(=O)[C@H](CC(C)C)NC(=O)[C@@H]2CCCN2C(=O)[C@H](Cc2ccccc2)NC(=O)CNC(=O)[C@H](Cc2ccccc2)NC1=O [Peptide N7D-TNPc] (H-SDSKIGDGCFGFPLDRIGSVSGLGCNRIMQNPPKKFSGE-OH; disulfide 9-25; N-terminus assumed) | 7.585 ± 0.005 | 2.62e-08 | –
CC[C@H](C)[C@@H]1NC(=O)[C@H](CCCNC(=N)N)NC(=O)[C@H](CC(=O)O)NC(=O)[C@H](CC(C)C)NC(=O)[C@@H]2CCCN2C(=O)[C@H](Cc2ccccc2)NC(=O)CNC(=O)[C@H](Cc2ccccc2)NC(=O)[C@@H](NC(=O)CNC(=O)[C@H](CCCCN)NC(=O)[C@H](CO)NC(=O)[C@@H](NC(=O)[C@H](CCCCN)NC(=O)[C@H](CO)NC(=O)[C@H](CC(=O)O)NC(=O)[C@@H](N)CO)[C@@H](C)CC)CSSC[C@@H](C(=O)N[C@@H](CC(N)=O)C(=O)N[C@@H](CCCNC(=N)N)C(=O)N[C@H](C(=O)N[C@@H](CCSC)C(=O)N[C@@H](CCC(N)=O)C(=O)N[C@@H](CC(N)=O)C(=O)N2CCC[C@H]2C(=O)N2CCC[C@H]2C(=O)N[C@@H](CCCCN)C(=O)N[C@@H](CCCCN)C(=O)N[C@@H](Cc2ccccc2)C(=O)N[C@@H](CO)C(=O)NCC(=O)N[C@@H](CCC(=O)O)C(=O)O)[C@@H](C)CC)NC(=O)CNC(=O)[C@H](CC(C)C)NC(=O)CNC(=O)[C@H](CO)NC(=O)[C@H](C(C)C)NC(=O)[C@H](CO)NC(=O)CNC1=O [Peptide K7S6-TNPc] (H-SDSKISKGCFGFPLDRIGSVSGLGCNRIMQNPPKKFSGE-OH; disulfide 9-25; N-terminus assumed) | 7.567 ± 0.4397 | 5.24e-08 | –
CC[C@H](C)[C@@H]1NC(=O)[C@H](CCCNC(=N)N)NC(=O)[C@H](CC(=O)O)NC(=O)[C@H]([C@@H](C)CC)NC(=O)[C@H](CCCCN)NC(=O)[C@H](Cc2c[nH]cn2)NC(=O)CNC(=O)[C@H](Cc2ccccc2)NC(=O)[C@@H](NC(=O)CNC(=O)[C@H](CC(=O)O)NC(=O)[C@@H]2CCCN2C(=O)[C@H](C)NC(=O)[C@H](CCCCN)NC(=O)[C@H](CCCCN)NC(=O)[C@H](CCCCN)NC(=O)[C@@H]2CCCN2C(=O)[C@@H]2CCCN2C(=O)[C@H](CCC(=O)O)NC(=O)[C@H](CC(N)=O)NC(=O)[C@H](CCC(=O)O)NC(=O)CN)CSSC[C@@H](C(=O)N[C@@H](CC(N)=O)C(=O)N[C@@H](CCCCN)C(=O)N[C@@H](Cc2ccccc2)C(=O)N[C@@H](CCCCN)C(=O)N2CCC[C@H]2C(=O)NCC(=O)N[C@@H](Cc2c[nH]cn2)C(=O)O)NC(=O)CNC(=O)[C@H](CC(C)C)NC(=O)CNC(=O)[C@H](CO)NC(=O)[C@H](Cc2c[nH]cn2)NC(=O)[C@H](CO)NC(=O)CNC1=O [PNP, reference compound] (H-GENEPPKKKAPDGCFGHKIDRIGSHSGLGCNKFKPGH-OH; disulfide 14-30) | 6.660 ± 0.4500 | 3.47e-07 | –
